Source: the Deep4Chem optical property database
Blank lines part the entries; values can stand above or below the compound they belong to.

Test: solvent given as SMILES

absorption maximum (in CC#N): 288 nm | absorption maximum (in CCO): 292 nm | absorption maximum (in CO): 287 nm
Structure (SMILES): COc1cccc(-n2c(-c3ccc(O)cc3)nc(C)c2C)c1

absorption maximum (in ClCCl): 372 nm
Structure (SMILES): c1ccc(N(c2ccccc2)c2ccc(-c3ccc4c(c3)C3(c5ccccc5Oc5ccccc53)c3cc(-c5ccc(N(c6ccccc6)c6ccccc6)cc5)ccc3-4)cc2)cc1

absorption maximum (in O): 429 nm
Structure (SMILES): N#Cc1c(N2CCCCC2)cc(-c2ccc3c(c2)OCO3)c2c1-c1cccc3cccc-2c13

absorption maximum (in CCCCCC): 346 nm | absorption maximum (in CO): 345 nm | absorption maximum (in ClCCl): 348 nm
Structure (SMILES): CC(C)(C)c1ccc2ccc3c(C(C)(C)C)ccc4ccc1c2c43

absorption maximum (in CC#N): 456 nm
Structure (SMILES): COc1ccc(-c2nc3ccccc3nc2/C=C/N2CCCC2)s1

absorption maximum (in C1CCCCC1): 341 nm | absorption maximum (in C1CCOC1): 348 nm | absorption maximum (in C1COCCO1): 344 nm | absorption maximum (in CC#N): 337 nm | absorption maximum (in CC(C)(C)O): 346 nm | absorption maximum (in CC(C)O): 345 nm | absorption maximum (in CCCCCC): 340 nm | absorption maximum (in CCCCO): 345 nm | absorption maximum (in CCO): 344 nm | absorption maximum (in CCOC(C)=O): 344 nm | absorption maximum (in CN(C)C=O): 347 nm | absorption maximum (in CO): 344 nm | absorption maximum (in CS(C)=O): 348 nm | absorption maximum (in ClC(Cl)Cl): 346 nm | absorption maximum (in ClCCl): 341 nm | absorption maximum (in O): 346 nm | absorption maximum (in OCCO): 344 nm
Structure (SMILES): Cc1ccc(/C=N/c2cc(C(C)C)c(O)cc2C)cc1

absorption maximum (in ClCCl): 317 nm
Structure (SMILES): COc1cc2c(cc1OC)C1=C[C@H](c3ccc(C)cc3)C3(C(C#N)=C(C#N)N1CC2)c1ccccc1-c1ccccc13

absorption maximum (in C1CCOC1): 340 nm
Structure (SMILES): C(=C(c1ccccc1)c1ccccc1)c1ccc(-c2ccc(-c3nc4c5ccccc5c5ccccc5c4n3-c3cccc(-c4ccc(C=C(c5ccccc5)c5ccccc5)cc4)c3)cc2)cc1

absorption maximum (in C1COCCO1): 357 nm | absorption maximum (in CC#N): 356 nm | absorption maximum (in CCO): 351 nm | absorption maximum (in CCOC(C)=O): 353 nm | absorption maximum (in O): 347 nm
Structure (SMILES): CC1=N/C(=C\c2ccncc2)C(=O)N1C

absorption maximum (in ClCCl): 289 nm
Structure (SMILES): FC(F)(F)c1ccc(-c2ccc(-c3cc(-c4ccccn4)nc(-c4ccccn4)c3)cc2)cc1

absorption maximum (in CCOC(C)=O): 435 nm | absorption maximum (in CO): 439 nm
Structure (SMILES): CN(C)c1ccc(-c2cc3c(ccc4c([N+](=O)[O-])cccc43)c(=O)o2)cc1

absorption maximum (in O): 294.99 nm
Structure (SMILES): Nc1nc2c([nH]c(=O)n2[C@H]2C[C@H](O)[C@@H](CO)O2)c(=O)[nH]1

absorption maximum (in C1CCOC1): 445 nm
Structure (SMILES): Cc1cc(C)c([B-]2(c3c(C)cc(C)cc3C)[O+]=P(c3ccccc3)(c3ccccc3)c3cc(-c4ccc(N(C)C)cc4)sc3-c3sc(-c4ccc(N(C)C)cc4)cc32)c(C)c1

absorption maximum (in CCO): 362 nm
Structure (SMILES): CC(C)=CCN1C(=O)c2cccc3c2c(cc2oc(C)nc23)C1=O

absorption maximum (in ClC(Cl)Cl): 515 nm
Structure (SMILES): CC1=CC(C)=[N+]2C1=C(C1=C3C(C)=CC(C)=[N+]3[B-](F)(F)n3c(C)cc(C)c31)c1c(C)cc(C)n1[B-]2(F)F

absorption maximum (in C1CCOC1): 577 nm
Structure (SMILES): Cc1ccc(C2=C3C=CC(Sc4ccccc4)=[N+]3[B-](F)(F)n3c(Sc4ccccc4)ccc32)cc1

absorption maximum (in C1CCCCC1): 340 nm | absorption maximum (in CO): 345 nm
Structure (SMILES): Cc1ccc(/C=C(\c2ccccc2)c2nc3ccccc3s2)cc1

absorption maximum (in C1CCOC1): 344 nm | absorption maximum (in CO): 348 nm
Structure (SMILES): CCOC(=O)C1=CN(c2ccccc2)C=CC1c1ccccc1 (stereo unspecified)

absorption maximum (in CCCCCC): 649 nm
Structure (SMILES): CC(C)[Si](C#Cc1c2nc3ccccc3nc2c(C#C[Si](C(C)C)(C(C)C)C(C)C)c2nc3c(ccc4ccccc43)nc12)(C(C)C)C(C)C

absorption maximum (in CC#N): 694 nm | absorption maximum (in CS(C)=O): 705 nm | absorption maximum (in ClC(Cl)Cl): 703 nm
Structure (SMILES): C#CCn1c2ccccc2c2cc(/C=C/C3=[N+]4C(=C(c5ccc(I)cc5)c5c(C)c(Cl)c(/C=C/c6ccc7c(c6)c6ccccc6n7CC#C)n5[B-]4(F)F)C(C)=C3Cl)ccc21

absorption maximum (in CCOC(C)=O): 344 nm
Structure (SMILES): CCn1c(-c2ccc(-c3ccc4ccc5cccc6ccc3c4c56)cc2)c(-c2ccc3ccccc3c2)c(-c2ccc3ccccc3c2)c1-c1ccc(-c2ccc3ccc4cccc5ccc2c3c45)cc1

absorption maximum (in ClCCl): 379 nm
Structure (SMILES): CCN(CC)c1ccc2c(c1)oc(=O)c1cc3cnn(-c4ccccc4)c3nc12

absorption maximum (in CS(C)=O): 294 nm
Structure (SMILES): Cc1ccc2c(c1)NC(=O)CC(=O)N2

absorption maximum (in ClC(Cl)Cl): 468 nm
Structure (SMILES): C(#Cc1ccccc1)C(C#Cc1ccccc1)=Cc1ccc(C=C(C#Cc2ccccc2)C#Cc2ccccc2)s1

absorption maximum (in ClCCl): 330 nm
Structure (SMILES): COc1ccc(C#Cc2ncc(-c3ccccc3)o2)cc1OC

absorption maximum (in ClCCl): 341 nm
Structure (SMILES): CCOC(=O)c1c(-c2cc3ccc(OCC=C(C)C)cc3oc2=O)nn(-c2ccccc2)c1C(=O)OCC

The remaining lines, values behind:

Structure (SMILES): N#CC(C#N)=Cc1cn(-c2ccccc2)nc1-c1ccc([N+](=O)[O-])cc1
absorption maximum (in C1CCOC1): 346 nm | absorption maximum (in C1COCCO1): 346 nm | absorption maximum (in CCO): 346 nm | absorption maximum (in CCOC(C)=O): 346 nm | absorption maximum (in CN(C)C=O): 347 nm | absorption maximum (in CO): 345 nm | absorption maximum (in CS(C)=O): 343 nm | absorption maximum (in Cc1ccccc1): 356 nm | absorption maximum (in ClC(Cl)Cl): 352 nm

Structure (SMILES): Brc1ccc(/C=C/c2cnc3ccccc3n2)cc1
absorption maximum (in ClCCl): 369 nm

Structure (SMILES): CCN(CC)c1ccc(-c2ccc(-c3nc(C#N)c4ccccc4n3)s2)cc1
absorption maximum (in CC#N): 397 nm | absorption maximum (in Cc1ccccc1): 402 nm

Structure (SMILES): CCCCCCC(CCCCCC)N1C(=O)c2cccc3c(-c4ccc(C#N)cc4)ccc(c23)C1=O
absorption maximum (in CCCCCC): 355.6 nm | absorption maximum (in CCCCCCCCCCCCCC): 356.2 nm | absorption maximum (in CCCCCCCCCCCO): 365.8 nm | absorption maximum (in CCCCO): 367.8 nm | absorption maximum (in CN(C)C=O): 367.8 nm | absorption maximum (in Cc1ccccc1): 364.6 nm | absorption maximum (in ClC(Cl)Cl): 366.4 nm

Structure (SMILES): CCCC1(CCC)c2ccccc2-c2ccccc21
absorption maximum (in C1CCCCC1): 304 nm

Structure (SMILES): CCn1c2ccccc2c2cc(/C=C/c3cc(/C=C/c4ccc5c(c4)c4ccccc4n5CC)[n+](CCCS(=O)(=O)[O-])c(/C=C/c4ccc5c(c4)c4ccccc4n5CC)c3)ccc21
absorption maximum (in C1CCOC1): 464 nm | absorption maximum (in CC#N): 458 nm | absorption maximum (in CC(C)=O): 462 nm | absorption maximum (in Cc1ccccc1): 466 nm

Structure (SMILES): CCn1c(-c2ccc(-c3ccc4c(c3)C3(c5ccccc5-c5ccccc53)c3ccccc3-4)cc2)c(-c2ccc3ccccc3c2)c(-c2ccc3ccccc3c2)c1-c1ccc(-c2ccc3c(c2)C2(c4ccccc4-c4ccccc42)c2ccccc2-3)cc1
absorption maximum (in CCOC(C)=O): 326 nm

Structure (SMILES): CCOC(=O)/C=C/c1ccc(N(C)C)cc1
absorption maximum (in C1CCCCC1): 353 nm | absorption maximum (in C1CCOC1): 362 nm | absorption maximum (in C1COCCO1): 359 nm | absorption maximum (in CC#N): 363 nm | absorption maximum (in CCCCCCCCO): 363 nm | absorption maximum (in CCCCCCO): 365 nm | absorption maximum (in CCCCO): 363 nm | absorption maximum (in CCCO): 364 nm | absorption maximum (in CCO): 363 nm | absorption maximum (in CCOC(C)=O): 360 nm | absorption maximum (in CO): 362 nm | absorption maximum (in Cc1ccccc1): 362 nm | absorption maximum (in O): 373 nm | absorption maximum (in c1ccccc1): 363 nm

Structure (SMILES): CCCCC1(CCCC)c2cc(/C=C/c3ccc(N(c4ccccc4)c4ccccc4)cc3)ccc2-c2cc3c(cc21)-c1ccc(/C=C/c2ccc(N(c4ccccc4)c4ccccc4)cc2)cc1C3(CCCC)CCCC
absorption maximum (in Cc1ccccc1): 413 nm

Structure (SMILES): CCCCCCC(CCCCCC)N1C(=O)c2cccc3c(-c4ccc(N(C)C)cc4)ccc(c23)C1=O
absorption maximum (in CCCCCC): 401.2 nm | absorption maximum (in CCCCCCCCCCCCCC): 403.8 nm | absorption maximum (in CCCCCCCCCCCO): 428.6 nm | absorption maximum (in CCCCO): 430.2 nm | absorption maximum (in CN(C)C=O): 433.8 nm | absorption maximum (in Cc1ccccc1): 418.2 nm | absorption maximum (in ClC(Cl)Cl): 426.2 nm

Structure (SMILES): CCCCN(CCCC)c1ccc(C#Cc2cc(C#Cc3ccc(C#N)cc3)c(C#Cc3ccc(C#N)cc3)cc2C#Cc2ccc(N(CCCC)CCCC)cc2)cc1
absorption maximum (in ClCCl): 416 nm

Structure (SMILES): CCCCCCCCC1(CCCCCCCC)c2ccccc2-c2ccc(N(c3ccc(-n4c5ccccc5c5ccccc54)cc3)c3ccc4c(c3)C(CCCCCCCC)(CCCCCCCC)c3ccccc3-4)cc21
absorption maximum (in C1CCOC1): 347 nm | absorption maximum (in CC#N): 345 nm | absorption maximum (in CC(C)=O): 345 nm | absorption maximum (in CCCCCC): 347 nm | absorption maximum (in CCCCOCCCC): 347 nm | absorption maximum (in CCN(CC)CC): 347 nm | absorption maximum (in CCOC(C)=O): 345 nm | absorption maximum (in CCOCC): 345 nm | absorption maximum (in CN(C)C=O): 345 nm | absorption maximum (in Cc1ccccc1): 348 nm | absorption maximum (in ClCCl): 348 nm

Structure (SMILES): CC(C)(C)c1ccc2c(c1)c1cc(C(C)(C)C)ccc1n2-c1cccc(-n2c3ccc(C(C)(C)C)cc3c3cc(C(C)(C)C)ccc32)c1C#N
absorption maximum (in Cc1ccccc1): 367 nm

Structure (SMILES): COCCC1=Cc2nc1ccc1[nH]c(c3nc(ccc4[nH]c2cc4CCOC)C(CCOC)=C3)c(CN(C)C)c1CCOC
absorption maximum (in Cc1ccccc1): 643 nm

Structure (SMILES): c1ccc2c3c(ccc2c1)-c1c2ccccc2cc2cccc-3c12
absorption maximum (in CCCCCCC): 449 nm

Structure (SMILES): CCC(C)(C)c1ccc(-c2ccc(-c3ccc(C(C)(C)CC)cc3)cc2)cc1
absorption maximum (in C1COCCO1): 289 nm

Structure (SMILES): CN(C)c1ccc(C2=Nc3scc[n+]3[B-](F)(F)O2)cc1
absorption maximum (in C1CCOC1): 402 nm | absorption maximum (in CC#N): 402 nm | absorption maximum (in Cc1ccccc1): 405 nm | absorption maximum (in ClCCl): 407 nm

Structure (SMILES): CC1(C)c2ccccc2N(c2ccc3c(c2)c2ccccc2c2nc4ccccc4nc32)c2ccccc21
absorption maximum (in Cc1ccccc1): 382 nm

Structure (SMILES): COc1ccc2c(CC(=O)NN)coc2c1
absorption maximum (in C1CCOC1): 290 nm | absorption maximum (in CC#N): 290 nm | absorption maximum (in CC(C)=O): 298 nm | absorption maximum (in CCCCO): 278 nm | absorption maximum (in CCCO): 289 nm | absorption maximum (in CCO): 291 nm | absorption maximum (in CCOC(C)=O): 300 nm | absorption maximum (in CN(C)C=O): 288 nm | absorption maximum (in CO): 290 nm | absorption maximum (in ClCCl): 287 nm

Structure (SMILES): CCc1c(C)[nH]c(C2=[N+]3C(=Cc4c(C)cc(C)n4[B-]3(F)F)c3ccccc32)c1C
absorption maximum (in C1CCOC1): 615 nm | absorption maximum (in CC#N): 607 nm | absorption maximum (in CCCCCC): 616 nm | absorption maximum (in CO): 610 nm | absorption maximum (in Cc1ccccc1): 623 nm | absorption maximum (in ClCCl): 616 nm

Structure (SMILES): CCC1=C(C)C(=O)n2c1cc1c(C)c(CC)c(C)n1c2=O
absorption maximum (in CC#N): 423 nm | absorption maximum (in CC(C)=O): 422 nm | absorption maximum (in CO): 428 nm | absorption maximum (in CS(C)=O): 428 nm | absorption maximum (in ClC(Cl)Cl): 432 nm | absorption maximum (in c1ccccc1): 428 nm

Structure (SMILES): COc1ccc(C2=[N+]3C(=Nc4c(-c5ccc6ccccc6c5)cc(-c5ccc(OC)cc5)n4[B-]3(F)F)C(c3ccc4ccccc4c3)=C2)cc1
absorption maximum (in ClCCl): 704 nm
